# Laboratory results reported in patent US10359436B2, “Nuclear stress response in motor neuron disease and other neurological diseases” (DIGNITY HEALTH, priority 2013, dated 2019).
# Tested on: HEK293 cells
# Assay: Quantitative immunocolocalization of RBM45 with the nuclear stress body marker HSF1 in stressed HEK293 cells
# Type: cell-based
# Settings: mitoxantrone treatment as cellular stress, quantitative immunocolocalization analysis
# Protocol: An imaging-based approach combining immunofluorescence microscopy (IF), digital deconvolution (DD), and automated image analysis (IA) is used to examine RBM45 redistribution and colocalization with markers of subnuclear structures in response to heat shock and mitoxantrone (topoisomerase II inhibitor, genotoxic stress).
# For immunocytochemistry experiments, HEK293 cells were grown and stained with antibodies, as above. Corresponding images were subjected to digital deconvolution, counting as above, and quantitative immunocolocalization with markers of subnuclear structures.
# Digital deconvolution is a mathematical post-processing method that removes out of focus light from wide field fluorescent microscopic images, based on the mathematical modeling of the behavior of light in a given imaging system, called the point spread function (PSF). The effect of deconvolution is similar, in practice, to using a confocal microscope. […] Several deconvolution procedures exist, which vary in complexity/algorithm. […]
# During image analysis, counts are based on thresholding of image pixel intensity values and counts are made using particle detection algorithms (vary size/circularity). On example of colocalization analysis is quantitative immunocolocalization analysis as described in Li et al., 2004. […]
smiles,measurement,value
O=C1c2c(O)ccc(O)c2C(=O)c2c(NCCNCCO)ccc(NCCNCCO)c21 [mitoxantrone],colocalization of RBM45 with the nuclear stress body marker HSF1,significant colocalization
